Data published in patent publication US10087466B2 (priority 2016, dated 2018).
Marks after values point to notes of the source that are not given here.

Assays:
Type in all cases: in vivo
weaned pigs = assay: Pig growth measurement (body weight, feed intake, feed/gain) in weaned pigs; details: mean±SD
[1] = tested on: pig antioxidative function; assay: Serum antioxidative function measurement (T-AOC, GPx, SOD, MDA) with kits; details: diet + 0.3 mg/kg Na2SeO3 or 0.14 mg/kg nanostructure, mean±SD
[2] = tested on: Serum inflammatory cytokine TNF-α, IL-2 and IL-6; assay: Serum inflammatory cytokines (TNF-α, IL-2, IL-6) by ELISA; details: pig serum; diet + 0.3 mg/kg Na2SeO3 or 0.14 mg/kg nanostructure; mean±SD
Serum IgG and IgM = Serum IgG and IgM by turbidimetric inhibition immuno assay; details: pig serum; diet + 0.3 mg/kg Na2SeO3 or 0.14 mg/kg nanostructure; mean±SD
[3] = day 28 to 67, diet + 0.3 mg/kg Na2SeO3 or 0.14 mg/kg nanostructure

What does the source list for O=[Se](O)O [sodium selenite]?
Final weight (weaned pigs; 67-day-old, basic diet + 0.3 mg/kg Na2SeO3 (group 1) or 0.14 mg/kg biogenic elemental selenium nanostructure (group 2)): 24.17 ± 0.76^a kg; Average daily feed intake (weaned pigs; [3]): 654.17 ± 37.64 g; Average daily gain (weaned pigs; [3]): 411.54 ± 20.63^a g; Feed/gain ratio (weaned pigs; [3]): 1.59 ± 0.01^b; GPx [1]: 238.56 ± 13.07^a U/mL; MDA [1]: 3.31 ± 0.10^a nmol/mL; SOD [1]: 147.94 ± 5.89^a U/mL; T-AOC [1]: 2.51 ± 0.16^a U/mL; IL-2 [2]: 108.19 ± 10.26^ab ng/L; IL-6 [2]: 571.10 ± 38.62^ab ng/L; TNF-α [2]: 41.86 ± 4.50^ab ng/L; IgG (Serum IgG and IgM): 2.66 ± 0.23^ab g/L; IgM (Serum IgG and IgM): 0.71 ± 0.07^a g/L
